Laboratory results published in US4559323A, “A41030 Antibiotics” (Eli Lilly and Company, priority 1984, dated 1985).
Read-outs that look alike come from different tables or passages of the source.

Tests used:
[1] = test system: Pc. constellatus; assay: Agar-dilution MIC (anaerobes); assay type: cell-based, Peptococcus constellatus; details: Table 15; Pc. constellatus 1468
Experimental: (§1) The MIC values were determined by the agar-dilution method, and are recorded in Table 15, which follows.

[2] = Electrometric titration (pKa); assay type: physicochemical; details: electrometric titration in 66% dimethylformamide in water
[3] = test system: Peptostreptococcus anaerobius; assay: Agar-dilution MIC (anaerobes); assay type: cell-based
[4] = test system: Peptostreptococcus intermedius; assay: Agar-dilution MIC (anaerobes); assay type: cell-based; details: Table 15
[5] = test system: B. thetaiotaomicron; assay type: cell-based
Description: (§2) The agar-dilution procedure described by the International Collaborative study (ICS) group was used to determine the minimum inhibitory concentrations (MIC's).

[6] = test system: Bacteroides corrodens; assay: Agar-dilution MIC (anaerobes); assay type: cell-based; details: Table 12; 24-hour; B. corrodens 1874
Description: (§3) The A41030 antibiotics, factors A, B, and C, are active against a genus of anaerobic bacteria identified as Bacteroides sp., the 24-hour MIC values being determined by the agar-dilution method, and are set forth in Table 12, which follows.

[7] = test system: Bacteroides vulgatis; assay: Agar-dilution MIC (anaerobes); assay type: cell-based; details: Table 12; 24-hour; B. vulgatis 1563
Description: as §3

[8] = test system: Clostridium difficile; assay type: cell-based; details: Table 14; Clostridium difficile 2994
[9] = test system: Clostridium perfringens; assay type: cell-based; details: Table 14; Clostridium perfringens 81
[10] = test system: Peptococcus asaccharolyticus; assay: Agar-dilution MIC (anaerobes); assay type: cell-based; details: Table 15
Experimental: as §1

[11] = test system: Bacteroides corrodens; assay: Agar-dilution MIC (anaerobes); assay type: cell-based; details: Table 14; Bacteroides corrodens 1874
[12] = test system: S. pyogenes; assay: In vivo oral activity against S. pyogenes in mice
[13] = test system: Bacteroides vulgatis; assay: Agar-dilution MIC (anaerobes); assay type: cell-based; details: Table 14; Bacteroides vulgatis 1211
[14] = test system: Clostridium difficile; assay type: cell-based; details: Table 16
Description: The A41030 antibiotic factors A, B, C, D, E, F, and G, are also active against a number of strains of Clostridium difficile, as determined by the agar-dilution method.

[15] = test system: Clostridium septicum; assay: Agar-dilution MIC (anaerobes); assay type: cell-based; details: Table 14; Clostridium septicum 1128
[16] = test system: Peptococcus prevoti; assay: Agar-dilution MIC (anaerobes); assay type: cell-based
[17] = test system: Bacteroides fragilis; assay: Agar-dilution MIC (anaerobes); assay type: cell-based
Description: as §2

[18] = test system: Fusobacterium necrophorum; assay: Agar-dilution MIC (anaerobes); assay type: cell-based; details: Table 14; Fusobacterium necrophorum 6054A
[19] = test system: Streptococcus pyogenes; assay: Agar-dilution MIC; assay type: cell-based; details: Table 17; 24 hours; Streptococcus pyogenes C203
Description: as §2

[20] = test system: Streptococcus sp. (Group D); assay: Agar-dilution MIC; assay type: cell-based; details: Table 17, 24 hours
Description: as §2

[21] = test system: Fusobacterium symbiosum; assay: Agar-dilution MIC (anaerobes); assay type: cell-based; details: Table 14; Fusobacterium symbiosum 1470
[22] = Solubility in solvents; assay type: physicochemical; details: solvents as named
Description: The seven antibiotic factors are recovered from the fermentation and are obtained as a mixture, the A41030 complex. It will be recognized that the ratio of the factors in the A41030 complex will vary, depending upon the fermentation conditions used. The individual factors […], and G are separated and isolated as individual compounds, as hereinafter described.

[23] = test system: Salmonella typhi; assay: Agar-dilution MIC; assay type: cell-based; details: Table 17, 24 hours

Substance: A41030 factor C
- MIC [1]: 0.5 µg/mL
- pKa, first titratable group [2]: about 5.5
- MIC ([3]; Table 14, Peptostreptococcus anaerobius 1428): ≤ 0.25 µg/mL
- MIC ([3]; Table 15, Ps. anaerobius 52): 0.25 µg/mL
- MIC ([3]; Table 15, Ps. anaerobius 59): 0.25 µg/mL
- MIC ([3]; Table 15, Ps. anaerobius 1418): ≤ 0.03 µg/mL
- MIC ([3]; Table 15, Ps. anaerobius 1428): 0.25 µg/mL
- MIC ([3]; Table 15, Ps. anaerobius 1451): 0.25 µg/mL
- MIC ([3]; Table 15, Ps. anaerobius 1477): 0.25 µg/mL
- MIC ([4]; Ps. intermedius 1264): ≤ 0.03 µg/mL
- MIC ([4]; Ps. intermedius 1624): 1.0 µg/mL
- MIC ([5]; Table 12, 24-hour, B. thetaiotaomicron 1438): 32 µg/mL
- MIC ([5]; Table 12, 24-hour, B. thetaiotaomicron 1900A): 128 µg/mL
- MIC ([5]; Table 14, Bacteroides thetalotaomicron 1438): 64 µg/mL
- MIC [6]: 32 µg/mL
- MIC [7]: 32 µg/mL
- MIC [8]: 16 µg/mL
- MIC [9]: 1.0 µg/mL
- MIC ([10]; Pc. asaccharolyticus 1302): 0.125 µg/mL
- MIC ([10]; Pc. asaccharolyticus 1344): 1.0 µg/mL
- MIC [11]: 32 µg/mL
- in vivo oral activity [12]: > 300 mg./kg.X2
- MIC [13]: 32 µg/mL
- MIC ([14]; C. difficile 78): 1.0 µg/mL
- MIC ([14]; C. difficile 107B): 1.0 µg/mL
- MIC ([14]; C. difficile 111F): 2 µg/mL
- MIC ([14]; C. difficile 1153): 2 µg/mL
- MIC ([14]; C. difficile 2634): 2 µg/mL
- MIC ([14]; C. difficile 3424-5B): 1.0 µg/mL
- MIC ([14]; C. difficile 3816): 2 µg/mL
- MIC ([14]; C. difficile 3950): 2 µg/mL
- MIC ([14]; C. difficile 6890): 2 µg/mL
- MIC ([14]; C. difficile 8484): 1.0 µg/mL
- MIC ([14]; C. difficile A-194): 2 µg/mL
- MIC ([14]; C. difficile A-195): 1.0 µg/mL
- MIC ([14]; C. difficile A-196): 2 µg/mL
- MIC ([14]; C. difficile A-279): 2 µg/mL
- MIC ([14]; C. difficile A-280): 1.0 µg/mL
- MIC ([14]; C. difficile A-281): 2 µg/mL
- MIC ([14]; C. difficile WAL-2112): 2 µg/mL
- MIC ([14]; C. difficile WAL-3657): 2 µg/mL
- MIC ([14]; C. difficile WAL-4268): 1.0 µg/mL
- MIC [15]: 8 µg/mL
- MIC ([16]; Table 14, Peptococcus prevoti 1281): ≤ 0.25 µg/mL
- MIC ([16]; Table 15, Pc. prevoti 1281): 1.0 µg/mL
- MIC ([16]; Table 15, Pc. prevoti 1293): 0.5 µg/mL
- MIC ([16]; Table 15, Pc. prevoti 1407): 1.0 µg/mL
- MIC ([17]; Table 12, 24-hour, B. fragilis 2): 32 µg/mL
- MIC ([17]; Table 12, 24-hour, B. fragilis 9): 32 µg/mL
- MIC ([17]; Table 12, 24-hour, B. fragilis 103): 32 µg/mL
- MIC ([17]; Table 12, 24-hour, B. fragilis 104): 32 µg/mL
- MIC ([17]; Table 12, 24-hour, B. fragilis 106): 32 µg/mL
- MIC ([17]; Table 12, 24-hour, B. fragilis 107): 32 µg/mL
- MIC ([17]; Table 12, 24-hour, B. fragilis 108): 64 µg/mL
- MIC ([17]; Table 12, 24-hour, B. fragilis 110): 64 µg/mL
- MIC ([17]; Table 12, 24-hour, B. fragilis 111): 32 µg/mL
- MIC ([17]; Table 12, 24-hour, B. fragilis 112): 32 µg/mL
- MIC ([17]; Table 12, 24-hour, B. fragilis 113): 32 µg/mL
- MIC ([17]; Table 12, 24-hour, B. fragilis 1451): 64 µg/mL
- MIC ([17]; Table 12, 24-hour, B. fragilis 1470): 64 µg/mL
- MIC ([17]; Table 12, 24-hour, B. fragilis 1877): 32 µg/mL
- MIC ([17]; Table 12, 24-hour, B. fragilis 9032): 32 µg/mL
- MIC ([17]; Table 14, Bacteroides fragilis 1877): 16 µg/mL
- MIC ([17]; Table 14, Bacteroides fragilis 1936B): 32 µg/mL
- MIC [18]: 16 µg/mL
- MIC [19]: 1 µg/mL
- MIC ([20]; Streptococcus sp. Group D 9960): 4 µg/mL
- MIC ([20]; Streptococcus sp. Group D X66): 2 µg/mL
- MIC [21]: 1.0 µg/mL
- Solubility [22]: soluble in the same solvents as factor A
- MIC ([23]; Salmonella typhi 1335): > 128 µg/mL
- MIC ([23]; Salmonella typhi X514): > 128 µg/mL
